PMC12349723, “Computationally accelerated identification of P-glycoprotein inhibitors” (PLOS One, 2025)
Values joined by “and” are separate entries in the source; they are usually repeats but may differ in a detail not shown here. Identical values can stand only once. Like-named read-outs stand apart in the source and are kept apart here.

Experiments:
Format in all cases: cell-based, human
[1] = tested on: DU145-TXR cells; assay: MTT viability assay, reversal of MDR (re-sensitization to paclitaxel) in P-gp overexpressing DU145-TXR cells; conditions: for % Survival, mean / % Survival / viability at 15 µM: DU145-TXR; for viability at 15 µM: Homo sapiens; for Re-sensitization of DU145-TXR cells to PTX (reversal of MDR): 15 µM compound with or without 500 nM PTX, 48 h, MTT, re-sensitization = 30% or greater decrease in cell viability
Summary of the method: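 MTT viability testing was done on P-gp overexpressing, multidrug resistant DU145-TXR human prostate cancer cells. They were kept in 10 nM paclitaxel and seeded at 3,000 cells per well in complete RPMI. Cells were exposed to compound, with or without paclitaxel, for 48 hours. MTT was then added for 4 hours, formazan was dissolved in DMSO, and absorbance was read at 570 nm. Survival was expressed relative to control-treated cells.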

[2] = tested on: A2780 cells; assay: MTT viability assay, parental A2780 cells, with or without PTX; conditions: for Mean % Survival / % Survival (individual sample): A2780 cells; for % Survival (individual sample): single samples; for Increase of PTX toxicity against parental A2780 cells: 15 µM compound with or without 500 nM PTX, 48 h, MTT
Summary of the method: (§1)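 Viability was assessed by MTT reduction (absorbance 570 nm, 4 h MTT) after 48 h compound treatment, alone or with chemotherapeutic, of parental A2780 or P-gp-overexpressing A2780-ADR cells seeded at 3,000 per well. Percent survival relative to DMSO-treated or DMSO-plus-chemotherapeutic controls.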

[3] = tested on: A2780-ADR cells; assay: MTT viability assay, reversal of MDR in P-gp overexpressing A2780-ADR cells; conditions: for Reversal of MDR in A2780-ADR cells: 15 µM compound with or without 500 nM PTX, 48 h, MTT
Summary of the method: as §1

[4] = 15 µM compound + 500 nM PTX (Paclitaxel, Taxol), mean of 8 samples
[5] = 15 µM compound + 500 nM PTX (Paclitaxel, Taxol), trial 1, sample 1
[6] = 15 µM compound + 500 nM PTX (Paclitaxel, Taxol), trial 1, sample 2
[7] = 15 µM compound + 500 nM PTX (Paclitaxel, Taxol), trial 1, sample 3
[8] = 15 µM compound + 500 nM PTX (Paclitaxel, Taxol), trial 1, sample 4
[9] = 15 µM compound + 500 nM PTX (Paclitaxel, Taxol), trial 2, sample 1
[10] = 15 µM compound + 500 nM PTX (Paclitaxel, Taxol), trial 2, sample 2
[11] = 15 µM compound + 500 nM PTX (Paclitaxel, Taxol), trial 2, sample 3
[12] = 15 µM compound + 500 nM PTX (Paclitaxel, Taxol), trial 2, sample 4
[13] = 1 µM compound + 500 nM PTX, mean of 12 samples
[14] = A2780-ADR cells, 1 µM compound + 500 nM PTX, mean of 12 samples
[15] = 15 µM Compound Alone, mean of 8 samples, read-out: % Survival, mean
[16] = 15 µM Compound Alone, trial 1, sample 1, read-out: % Survival
[17] = 15 µM Compound Alone, trial 1, sample 2, read-out: % Survival
[18] = 15 µM Compound Alone, trial 1, sample 3, read-out: % Survival
[19] = 15 µM Compound Alone, trial 1, sample 4, read-out: % Survival
[20] = 15 µM Compound Alone, trial 2, sample 1, read-out: % Survival
[21] = 15 µM Compound Alone, trial 2, sample 2, read-out: % Survival
[22] = 15 µM Compound Alone, trial 2, sample 3, read-out: % Survival
[23] = 15 µM Compound Alone, trial 2, sample 4, read-out: % Survival
[24] = 15 µM compound + 500 nM PTX, mean of 8 or 12 samples
[25] = Homo sapiens, A2780, A2780 cells, 15 µM compound alone, mean of 8 or 12 samples, read-out: Mean % Survival
[26] = A2780-ADR cells, 15 µM compound + 500 nM PTX, mean of 12 samples
[27] = A2780-ADR cells, 15 µM compound alone, single samples (trials 1-3, samples 1-4)
[28] = Homo sapiens, A2780 ADR, A2780-ADR cells, 15 µM compound alone, mean of 12 samples, read-out: Mean % Survival
[29] = Homo sapiens, A2780 ADR, A2780-ADR cells, 15 µM compound alone, single samples (trials 1-3, samples 1-4), read-out: % Survival (individual sample)

## COc1ccc2c3c([nH]c2c1)[C@H](CC(C)C)N1C(=O)[C@H](CCC(=O)OC(C)(C)C)NC(=O)[C@@H]1C3 [Ko143, reference compound]
[1]; 15 µM Compound Alone, mean of 8 samples
  % Survival, mean: 89.2%
[1]; 15 µM Compound Alone, trial 1, sample 1
  % Survival: 101%
[1]; 15 µM Compound Alone, trial 1, sample 2
  % Survival: 113%
[1]; 15 µM Compound Alone, trial 1, sample 3
  % Survival: 88%
[1]; 15 µM Compound Alone, trial 1, sample 4
  % Survival: 91%
[1]; 15 µM Compound Alone, trial 2, sample 1
  % Survival: 92%
[1]; 15 µM Compound Alone, trial 2, sample 2
  % Survival: 74%
[1]; 15 µM Compound Alone, trial 2, sample 3
  % Survival: 75%
[1]; 15 µM Compound Alone, trial 2, sample 4
  % Survival: 80%
[1]; [4]
  % Survival, mean: 72.4%
[1]; [5]
  % Survival: 75%
[1]; [6]
  % Survival: 82%
[1]; [7]
  % Survival: 91%
[1]; [8]
  % Survival: 77%
[1]; [9]
  % Survival: 65%
[1]; [10]
  % Survival: 67%
[1]; [11]
  % Survival: 58%
[1]; [12]
  % Survival: 64%
[2]; [13]
  Mean % Survival: 12.8%
[2]; 1 µM compound + 500 nM PTX
  % Survival (individual sample): 16% and 15% and 9% and 49% and 7% and 8% and 10%
[2]; 1 µM compound alone
  % Survival (individual sample): 88% and 85% and 84% and 87% and 89% and 40% and 99% and 90% and 97% and 92%
[2]; mean of 12 samples
  Mean % Survival: 85.3%
[3]; [14]
  Mean % Survival: 77.3%
[3]; A2780-ADR cells, 1 µM compound + 500 nM PTX, single samples (trials 1-3, samples 1-4)
  % Survival (individual sample): 70% and 74% and 82% and 83% and 73% and 76% and 85% and 71% and 75% and 84%
[3]; A2780-ADR cells, 1 µM compound alone, mean of 12 samples
  Mean % Survival: 102.8%
[3]; A2780-ADR cells, 1 µM compound alone, single samples (trials 1-3, samples 1-4)
  % Survival (individual sample): 103% and 101% and 106% and 119% and 127% and 112% and 96% and 91% and 87% and 92% and 99%

## COc1cc2c(cc1OC)CN(CCc1ccc(NC(=O)c3cc(OC)c(OC)cc3NC(=O)c3cnc4ccccc4c3)cc1)CC2 [Tariquidar, reference compound]
[1]; [4]
  % Survival, mean: 13.1%
[1]; [5]
  % Survival: 11%
[1]; [6]
  % Survival: 10%
[1]; [7]
  % Survival: 21%
[1]; [8]
  % Survival: 13%
[1]; [9]
  % Survival: 20%
[1]; [10]
  % Survival: 13%
[1]; [11]
  % Survival: 9%
[1]; [12]
  % Survival: 7.57%
[1]; [15]
  viability at 15 µM: 101%
[1]; [16]
  viability at 15 µM: 139%
[1]; [17]
  viability at 15 µM: 94%
[1]; [18]
  viability at 15 µM: 96%
[1]; [19]
  viability at 15 µM: 95%
[1]; [20]
  viability at 15 µM: 80%
[1]; [21]
  viability at 15 µM: 106%
[1]; [22]
  viability at 15 µM: 79%
[1]; [23]
  viability at 15 µM: 123%
[2]; [13]
  Mean % Survival: 17.8%
[2]; 1 µM compound + 500 nM PTX, listed as TQR
  % Survival (individual sample): 12%
[2]; Homo sapiens, A2780, A2780 cells, 1 µM compound alone, mean of 12 samples, read-out: Mean % Survival
  viability at 1 µM: 106%
[3]; [14]
  Mean % Survival: 55.3%
[3]; A2780-ADR cells, 1 µM compound + 500 nM PTX, single samples (trials 1-3, samples 1-4), listed as TQR
  % Survival (individual sample): 58% and 59%
[3]; Homo sapiens, A2780 ADR, A2780-ADR cells, 1 µM compound alone, mean of 12 samples, read-out: Mean % Survival
  viability at 1 µM: 91%

## Cn1cnnc1SCc1c(C(=O)O)nnn1-c1nonc1N [Compound 59, Cn1cnnc1SCc1c(nnn1-c1nonc1N)C(O)=O]
[1]; [4]
  % Survival, mean: 114.8%
[1]; [5]
  % Survival: 116%
[1]; [6]
  % Survival: 115%
[1]; [7]
  % Survival: 139%
[1]; [8]
  % Survival: 150%
[1]; [9]
  % Survival: 95%
[1]; [10]
  % Survival: 97%
[1]; [11]
  % Survival: 95%
[1]; [12]
  % Survival: 111%
[1]
  Re-sensitization of DU145-TXR cells to PTX (reversal of MDR): did not reverse MDR in DU145-TXR cells
[1]; [15]
  viability at 15 µM: 107%
[1]; [16]
  viability at 15 µM: 132%
[1]; [17]
  viability at 15 µM: 105%
[1]; [18]
  viability at 15 µM: 116%
[1]; [19]
  viability at 15 µM: 103%
[1]; [20]
  viability at 15 µM: 103%
[1]; [21]
  viability at 15 µM: 102%
[1]; [22]
  viability at 15 µM: 99%
[1]; [23]
  viability at 15 µM: 99%
[2]; [24]
  Mean % Survival: 11.4%
[2]; 15 µM compound + 500 nM PTX
  % Survival (individual sample): 6% and 9%
[2]; [25]
  viability at 15 µM: 99%
[3]; [26]
  Mean % Survival: 83.9%
[3]; [27]
  % Survival (individual sample): 98% and 96%
[3]; [28]
  viability at 15 µM: 93.1%
[3]; [29]
  viability at 15 µM: 95%

## O=S(=O)(Cc1nc2ccccc2n1CC(O)c1ccc(Cl)cc1)c1ccccc1 (stereo not drawn) [Compound 97, OC(Cn1c(CS(=O)(=O)c2ccccc2)nc2ccccc12)c1ccc(Cl)cc1]
[1]; [4]
  % Survival, mean: 34.9%
[1]; [5]
  % Survival: 26%
[1]; [6]
  % Survival: 30%
[1]; [7]
  % Survival: 24%
[1]; [8]
  % Survival: 42%
[1]; [9]
  % Survival: 44%
[1]; [10]
  % Survival: 41%
[1]; [11]
  % Survival: 30%
[1]; [12]
  % Survival: 42%
[1]
  Re-sensitization of DU145-TXR cells to PTX (reversal of MDR): re-sensitized DU145-TXR cells to PTX
[1]; [15]
  viability at 15 µM: 87.2%
[1]; [16]
  viability at 15 µM: 107%
[1]; [17]
  viability at 15 µM: 82%
[1]; [18]
  viability at 15 µM: 82%
[1]; [19]
  viability at 15 µM: 83%
[1]; [20]
  viability at 15 µM: 77%
[1]; [21]
  viability at 15 µM: 89%
[1]; [22]
  viability at 15 µM: 88%
[1]; [23]
  viability at 15 µM: 90%
[2]
  Increase of PTX toxicity against parental A2780 cells: did not greatly increase the toxicity of PTX against the parental A2780 cells
[2]; [24]
  Mean % Survival: 13.0%
[2]; 15 µM compound + 500 nM PTX
  % Survival (individual sample): 8% and 19%
[2]; [25]
  viability at 15 µM: 89.8%
[3]
  Reversal of MDR in A2780-ADR cells: reversed MDR in A2780-ADR cells
[3]; [26]
  Mean % Survival: 44.3%
[3]; A2780-ADR cells, 15 µM compound + 500 nM PTX, single samples (trials 1-3, samples 1-4)
  % Survival (individual sample): 47% and 29%
[3]; [28]
  viability at 15 µM: 92.5%

## Cc1ccc(-c2noc(-c3cn(Cc4ccc(NS(=O)(=O)c5ccccc5F)cc4)cn3)n2)cc1 [Compound 103, Cc1ccc(cc1)-c1noc(n1)-c1cn(Cc2ccc(NS(=O)(=O)c3ccccc3F)cc2)cn1]
[1]; [4]
  % Survival, mean: 19.9%
[1]; [5]
  % Survival: 11%
[1]; [6]
  % Survival: 11%
[1]; [7]
  % Survival: 11%
[1]; [8]
  % Survival: 14%
[1]; [9]
  % Survival: 32%
[1]; [10]
  % Survival: 27%
[1]; [11]
  % Survival: 27%
[1]; [12]
  % Survival: 28%
[1]
  Re-sensitization of DU145-TXR cells to PTX (reversal of MDR): re-sensitized DU145-TXR cells to PTX
[1]; [15]
  viability at 15 µM: 76.4%
[1]; [16]
  viability at 15 µM: 58%
[1]; [17]
  viability at 15 µM: 50%
[1]; [18]
  viability at 15 µM: 48%
[1]; [19]
  viability at 15 µM: 52%
[1]; [20]
  viability at 15 µM: 108%
[1]; [21]
  viability at 15 µM: 104%
[1]; [22]
  viability at 15 µM: 94%
[1]; [23]
  viability at 15 µM: 96%
[2]
  Increase of PTX toxicity against parental A2780 cells: did not greatly increase the toxicity of PTX against the parental A2780 cells
[2]; [24]
  Mean % Survival: 13.6%
[2]; 15 µM compound + 500 nM PTX
  % Survival (individual sample): 10% and 18% and 19%
[2]; 15 µM compound alone
  % Survival (individual sample): 63%
[2]; [25]
  viability at 15 µM: 52.9%
[3]
  Reversal of MDR in A2780-ADR cells: reversed MDR in A2780-ADR cells
[3]; [26]
  Mean % Survival: 44.4%
[3]; [27]
  % Survival (individual sample): 69%
[3]; [28]
  viability at 15 µM: 70.4%
[3]; [29]
  viability at 15 µM: 67%
